The results in this text go back to patent US11207301B2, “Sphingosine 1 phosphate receptor agonists for neuroprotection” (RECEPTOS LLC, priority 2017, dated 2021).

The subject of experiment [1] is ERK phosphorylation in primary mouse astrocytes. Kind of experiment: ERK phosphorylation in primary mouse cortical astrocytes (AlphaLISA SureFire Ultra). Conditions: Astrocyte, 10 min, 10-minute exposure. Type of experiment: cell-based. As for the experimental part: (§1) For the experiments using mouse and human primary astrocytes, ten-point concentration-response curves (90 nM-4.57 pM or 30 nM-1.52 pM) were generated for AKT and/or ERK phosphorylation in primary human and mouse cortical astrocytic cultures in response to a 10-minute treatment with ozanimod, Compound 3, Compound 1, or FTY720-P. AKT and ERK phosphorylation were quantified using AlphaLISA SureFire Ultra Assay kits and the EnVision Plate Reader. AKT and ERK phosphorylation within treated astrocytes were expressed as the mean change in signal intensity compared to the dimethyl sulfoxide (DMSO) vehicle and the half maximal effective concentration (EC50) was determined using non-linear regression.
Timed pregnant (E16) C57BL/6J female mice arrive to the test facility on a weekly basis and were housed and cared for according to appropriate protocols for this model. Primary mouse cortical astrocytes are harvested from P0-P2 pups. The newly born animals were deeply anesthetized on ice, decapitated, and the brains were rapidly removed and stored in ice-cold NbAstro media (BrainBits, LLC). Cells were dissociated from freshly dissected cortices by mechanical disruption in the presence of trypsin and DNase. Cells were put into a PDL coated T75 tissue culture flask containing 16 mL NbAstro Media and incubated at 37° C. 5% CO2. Once the mouse astrocytes had reached confluency in the T75 flask, they were detached using TripLE detachment reagent, pelleted at 300×g, expanded into two T225 PDL coated tissue culture flasks containing 40 mL of NbAstro and incubated at 37° C. 5% CO2. […]
Cell lysis and detection of pERK were performed according to the PerkinElmer AlphaLISA SureFire Ultra p-ERK1/2 (Thr202/TYR 204) assay protocol. […] The plates were read on the EnVision Plate Reader to assess the pERK levels.
(§2) The AKT and ERK phosphorylation data, collected by a Perkin Elmer EnVision Microplate Reader, was analyzed by non-linear regression (GraphPad Prism, version 7.03) to determine the EC50 values.
For orientation: In Alpha technology, singlet oxygen from a donor bead excites a nearby acceptor bead.

In experiment [2] the test system is ERK phosphorylation in primary human astrocytes. Kind of experiment: ERK phosphorylation in primary human cortical astrocytes (AlphaLISA SureFire Ultra). Type of experiment: cell-based. The conditions noted are these: Astrocyte, 10 min, 10-minute exposure, n=3-5. As for the experimental part: as §1
Primary human astrocytes were purchased from ScienCell Research Laboratories, Inc. and cultured according to the supplier's protocol. The astrocytes were obtained from the human cerebral cortex, cryopreserved at passage one, and delivered frozen. The frozen vials of cells were gently thawed in a 37° C. water bath. Once the contents of the vial were completely thawed, the cell solution was dispensed into a poly-L-lysine (PLL) coated T75 tissue culture flask with 16 mL of human Astrocyte Media, (ScienCell Research Laboratories, Inc.) and incubated at 37° C. 5% CO2. Once the human astrocytes had reached confluency in the T75 flask, they were detached using trypsin/EDTA 0.25%, pelleted at 300×g, split into two PLL coated T225 tissue culture flasks in 40 mL of astrocyte media, and incubated at 37° C. 5% CO2. Once the astrocytes reached confluency in the T225 flasks, they were detached using trypsin/EDTA 0.25% solution, pelleted at 300×g, plated into poly-D-lysine (PDL) coated 96-well plates at a density of 10,000 cells per well in 200 μL human Astrocyte Media, and incubated at 37° C. 5% CO2. Half of the media was replenished every 3-4 days. After 5-7 days of incubation, the P2 human astrocyte plates were utilized for the pERK and pAKT assays.
Cell lysis and detection of pERK were performed according to the PerkinElmer AlphaLISA SureFire Ultra p-ERK1/2 (Thr202/TYR 204) assay protocol. Astrocytes were lysed in the 96-well plate following a 10 minute incubation with compounds with shaking at RT. The astrocytic lysates (10 μL/well) were transferred into a 384-well OptiPlate. As specified by the assay protocol, an acceptor bead mix and a donor bead mix (5 μL/well for each) were added to the plate under subdued light. Plates were sealed with adhesive plate seals and incubated in the dark for 2 hours at RT. The plates were read on the EnVision Plate Reader to assess the pERK levels.
as §2

As a reminder, the EC50 is the concentration at which the effect is half-maximal. High values mean lower potency in that assay, low ones higher potency in that assay. Take `CC(C)Oc1ccc(-c2nc(-c3cccc4c3CCC4=O)no2)cc1C#N` [Compound 1, 2-isopropoxy-5-(3-(1-oxo-2,3-dihydro-1H-inden-4-yl)-1,2,4-oxadiazol-5-yl)benzonitrile]: the half-maximal effective concentration (EC50) in experiment [1] was 0.87 nM; in experiment [2] it was 2.12 nM.

On to `CC(C)Oc1ccc(-c2nc(-c3cccc4c3CC[C@@H]4NCCO)no2)cc1C#N` [Ozanimod], for which the figures for the EC50 in experiment [1] and in experiment [2] were 2.42 nM and 1.93 nM, respectively.
